Where a name gives a salt, the structure may show the parent alone.
What was measured:
fat tissue = conditions: after injection of deoxycholic acid solution; cited from earlier work
[1] = Gel formation of mixtures added to 0.9% saline, placed at 37° C.; type: physicochemical
Procedure: In the following examples, DCA-Na solutions were mixed with other components to prepare an injectable composition. Unless otherwise stated, the requirements for the final concentration of DCA-Na in the obtained compositions were ≥70% of initial solutions (≥36.96 mg/mL for 5% solution, ≥7.39 mg/mL for 1% solution). The appearances after mixing DCA-Na with other components were observed after placing at 25, 37 and 42° C. for 20, 30, 45, 60 and 120 minutes. 200 μL of the mixtures were also added to 200 μL 0.9% saline respectively and their appearances were also observed after placing at 37° C. for 20, 30, 45, 60 and 120 minutes. Photos were taken and showing in the figures.

Structure (SMILES) | permeation into fat tissue after injection (fat tissue) | suitable concentration of lidocaine HCl mixing with 1% DCA-Na solution ([1]; mixtures of 1% DCA-Na and LA + lidocaine HCl) | tolerable concentration of lidocaine HCl mixing with 5% DCA-Na solution ([1]; mixtures of 5% DCA-Na and LA in lidocaine HCl)
C[C@H](CCC(=O)O)[C@H]1CC[C@H]2[C@@H]3CC[C@@H]4C[C@H](O)CC[C@]4(C)[C@H]3C[C@H](O)[C@]12C [deoxycholic acid, Deoxycholic acid] | more than 1 centimeter |  | 
CCN(CC)CC(=O)Nc1c(C)cccc1C [lidocaine HCl] |  | around 3 mg/mL | up to 6 mg/mL

— US20250090550A1, “INJECTABLE COMPOSITION COMPRISING CYTOLYTIC COMPOUND IN GEL, GEL-FORMING SOLUTION OR GEL-FORMING SUSPENSION FOR REDUCTION OF FAT” (GLONOVA PHARMA CO., LTD., priority 2022, published 2025)
